pIC50: −log10 of the molar value.
Target: T1, human Werner helicase (WRN-BV08, Uniprot Q14191, amino acids 517-1235 with L1074F point mutation) (Homo sapiens, UniProt Q14191, L1074F)
T1 construct: Uniprot Q14191, amino acids 517-1235 with L1074F point mutation; TEV-cleavable 8×His (C, cleaved yes); made in house; host or cells: Sf9 insect cells (baculovirus)
Test: WRN (BV08) ADP-Glo Assay
Format: biochemical
Conditions: 0.15 nM WRN, 5 μM ATP, 0.1 nM DNA duplex, 15 min preincubation, 60 min at 25° C., pH 7.5, 1% DMSO; read-out: ADP-Glo_hWRN_IC50
Outline: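 ADP produced by WRN helicase fragment 517-1235 (L1074F, baculovirus/Sf9, untagged) read by ADP-Glo luminescence after 60 min at 25 °C with 5 μM ATP and 0.1 nM duplex DNA, following 15 min compound preincubation. Final enzyme 0.15 nM in Bicine pH 7.5 buffer, 1% DMSO; 20 μM NSC-617145 defined full inhibition.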

T1 sequence (Q14191 with tags, fused parts or gaps L1074F limits assumed): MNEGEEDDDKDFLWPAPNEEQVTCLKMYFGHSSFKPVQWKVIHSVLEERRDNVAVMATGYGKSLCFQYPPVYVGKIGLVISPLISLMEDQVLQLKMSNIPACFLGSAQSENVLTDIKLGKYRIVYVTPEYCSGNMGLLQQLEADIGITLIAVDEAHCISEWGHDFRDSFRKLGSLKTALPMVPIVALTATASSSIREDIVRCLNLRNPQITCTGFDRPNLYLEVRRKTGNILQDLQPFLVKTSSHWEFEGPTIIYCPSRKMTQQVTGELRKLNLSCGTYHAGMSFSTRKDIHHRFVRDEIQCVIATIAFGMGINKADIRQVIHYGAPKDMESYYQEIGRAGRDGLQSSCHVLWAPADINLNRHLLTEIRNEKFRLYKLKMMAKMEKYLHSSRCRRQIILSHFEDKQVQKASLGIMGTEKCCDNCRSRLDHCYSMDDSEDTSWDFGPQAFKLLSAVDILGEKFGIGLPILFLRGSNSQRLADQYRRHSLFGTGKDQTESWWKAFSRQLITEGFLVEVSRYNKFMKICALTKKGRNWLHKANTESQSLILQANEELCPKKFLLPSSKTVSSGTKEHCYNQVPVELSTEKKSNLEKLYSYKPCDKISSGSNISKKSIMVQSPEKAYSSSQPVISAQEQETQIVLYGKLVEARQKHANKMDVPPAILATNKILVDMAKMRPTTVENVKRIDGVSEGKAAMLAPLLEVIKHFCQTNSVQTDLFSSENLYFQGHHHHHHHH

pIC50 | SMILES
> 6.30 | CC(C)(O)c1cc(CN(C(=O)C(OCC(F)(F)F)c2ccc(-c3ccc(F)c(F)c3)cc2F)[C@@H]2C=CS(=O)(=O)C2)ccn1 (single isomer, unassigned) [I-805]
> 6.30 | O=C(Cc1ccc(S(F)(F)(F)(F)F)cc1)N(Cc1nc(C2CC2)cs1)C1C=CS(=O)(=O)C1 (centres unmarked) [I-41, N-[(4-cyclopropyl-1,3-thiazol-2-yl)methyl]-N-(1,1-dioxo-2,3-dihydro-1lambda6-thiophen-3-yl)-2-[4-(pentafluoro-lambda6-sulfanyl)phenyl]acetamide]
> 6.30 | CN(C)C(=O)C(C(=O)N(Cc1ccnc(C(C)(C)O)c1)C1C=CS(=O)(=O)C1)c1ccc(-c2ccc(F)cc2)cc1F (single isomer, unassigned) [I-12, (2R**)-2-{3,4′-difluoro-[1,1′-biphenyl]-4-yl}-N-[(3R*)-1,1-dioxo-2,3-dihydro-1lambda6-thiophen-3-yl]-N-{[2-(2-hydroxypropan-2-yl)pyridin-4-yl]methyl}-N′,N′-dimethylpropanediamide]
5.00 to 5.30 | O=C(Cc1ccc(-n2cccc2)cc1)N(Cc1cccc(F)c1)C1C=CS(=O)(=O)C1 (centres unmarked) [I-270, N-(1,1-dioxo-2,3-dihydro-1lambda6-thiophen-3-yl)-N-[(3-fluorophenyl)methyl]-2-[4-(1H-pyrrol-1-yl)phenyl]acetamide]
4.30 to 5.00 | O=C(Cc1ccc(-n2cccc2)cc1)N(Cc1ccc[nH]c1=O)C1C=CS(=O)(=O)C1 (centres unmarked) [I-369, N-(1,1-dioxo-2,3-dihydro-1lambda6-thiophen-3-yl)-N-[(2-oxo-1,2-dihydropyridin-3-yl)methyl]-2-[4-(1H-pyrrol-1-yl)phenyl]acetamide]
5.30 to 6.30 | O=C(Cc1ccc(S(F)(F)(F)(F)F)cc1)N(Cc1cscn1)C1C=CS(=O)(=O)C1 (centres unmarked) [I-657, N-(1,1-dioxo-2,3-dihydro-1lambda6-thiophen-3-yl)-2-[4-(pentafluoro-lambda6-sulfanyl)phenyl]-N-[(1,3-thiazol-4-yl)methyl]acetamide]
5.30 to 6.30 | COCc1cc(CN(C(=O)Cc2ccc(-n3cccc3C)cc2F)C2C=CS(=O)(=O)C2)ccn1 (centres unmarked) [I-118, N-(1,1-dioxo-2,3-dihydro-1lambda6-thiophen-3-yl)-2-[2-fluoro-4-(2-methyl-1H-pyrrol-1-yl)phenyl]-N-{[2-(methoxymethyl)pyridin-4-yl]methyl}acetamide]
< 4.30 | O=C(Cc1cccc(CC(F)(F)F)c1)N(Cc1ccncc1)C1C=CS(=O)(=O)C1 (centres unmarked) [I-393, N-(1,1-dioxo-2,3-dihydro-1lambda6-thiophen-3-yl)-N-[(pyridin-4-yl)methyl]-2-[3-(2,2,2-trifluoroethyl)phenyl]acetamide]
> 6.30 | O=C(Cc1ccc(S(F)(F)(F)(F)F)cc1)N(Cc1nc(C2CCC2)cs1)C1C=CS(=O)(=O)C1 (centres unmarked) [I-14, N-[(4-cyclobutyl-1,3-thiazol-2-yl)methyl]-N-(1,1-dioxo-2,3-dihydro-1lambda6-thiophen-3-yl)-2-[4-(pentafluoro-lambda6-sulfanyl)phenyl]acetamide]
< 4.30 | COc1cc(CN(C(=O)Cc2ccc(-c3csc(C)n3)cc2F)C2C=CS(=O)(=O)C2)ccn1 (centres unmarked) [I-573, N-(1,1-dioxo-2,3-dihydro-1lambda6-thiophen-3-yl)-2-[2-fluoro-4-(2-methyl-1,3-thiazol-4-yl)phenyl]-N-[(2-methoxypyridin-4-yl)methyl]acetamide]
< 4.30 | O=C(Cc1coc(-c2ccc(F)c(F)c2)n1)N(Cc1ccncc1)C1C=CS(=O)(=O)C1 (centres unmarked) [I-410, 2-[2-(3,4-difluorophenyl)-1,3-oxazol-4-yl]-N-(1,1-dioxo-2,3-dihydro-1lambda6-thiophen-3-yl)-N-[(pyridin-4-yl)methyl]acetamide]

Further lines, the molecule ahead of its results:

SMILES | pIC50
CC(C)(O)c1cc(CN(C(=O)Cn2cc(-c3ccccc3F)cn2)C2C=CS(=O)(=O)C2)ccn1 (centres unmarked) [I-108, N-(1,1-dioxo-2,3-dihydro-1lambda6-thiophen-3-yl)-2-[4-(2-fluorophenyl)-1H-pyrazol-1-yl]-N-{[2-(2-hydroxypropan-2-yl)pyridin-4-yl]methyl}acetamide] | 5.30 to 6.30
COc1cc(CN(C(=O)C(OCC2COC2)c2ccc(-c3ccc(F)c(F)c3)cc2F)[C@@H]2C=CS(=O)(=O)C2)ccn1 (stereo partly drawn) [I-807, N-[(3R)-1,1-dioxo-2,3-dihydro-1lambda6-thiophen-3-yl]-N-[(2-methoxypyridin-4-yl)methyl]-2-[(oxetan-3-yl)methoxy]-2-{3,3′,4′-trifluoro-[1,1′-biphenyl]-4-yl}acetamide] | 5.00 to 5.30
CNC(=O)C(C(=O)N(Cc1ccnc(C(C)(C)O)c1)C1C=CS(=O)(=O)C1)c1ccc(-c2ccc(F)c(F)c2)cc1F (single isomer, unassigned) [I-689, (2R**)-N′-[(3R*)-1,1-dioxo-2,3-dihydro-1lambda6-thiophen-3-yl]-N′-{[2-(2-hydroxypropan-2-yl)pyridin-4-yl]methyl}-N-methyl-2-{3,3′,4′-trifluoro-[1,1′-biphenyl]-4-yl}propanediamide] | > 6.30
O=C(Cn1cc(-c2ccc(F)cc2)cn1)N(Cc1nc(C2CC2)cs1)C1C=CS(=O)(=O)C1 (single isomer, unassigned) [I-602] | > 6.30
O=C(Cc1cccc(C2CC2)c1)N(Cc1ccncc1)C1C=CS(=O)(=O)C1 (centres unmarked) [I-437, 2-(3-cyclopropylphenyl)-N-(1,1-dioxo-2,3-dihydro-1lambda6-thiophen-3-yl)-N-[(pyridin-4-yl)methyl]acetamide] | < 4.30
O=C(N[C@H](Cc1c[nH]c2ccccc12)C(=O)N(Cc1ccncc1)C1C=CS(=O)(=O)C1)C1CC1 (stereo partly drawn) [I-397, (2R)-2-(cyclopropylformamido)-N-(1,1-dioxo-2,3-dihydro-1lambda6-thiophen-3-yl)-3-(1H-indol-3-yl)-N-[(pyridin-4-yl)methyl]propanamide] | < 4.30
O=C(C1Cc2ccc(Cl)cc21)N(Cc1ccncc1)C1C=CS(=O)(=O)C1 (centres unmarked) [I-650, 4-chloro-N-(1,1-dioxo-2,3-dihydro-1lambda6-thiophen-3-yl)-N-[(pyridin-4-yl)methyl]bicyclo[4.2.0]octa-1,3,5-triene-7-carboxamide] | < 4.30
Cc1cccn1-c1ccc(CC(=O)N(Cc2ccncc2)C2C=CS(=O)(=O)C2)cc1 (centres unmarked) [I-206, N-(1,1-dioxo-2,3-dihydro-1lambda6-thiophen-3-yl)-2-[4-(2-methyl-1H-pyrrol-1-yl)phenyl]-N-[(pyridin-4-yl)methyl]acetamide] | 5.30 to 6.30
CC(C)(O)c1cc(CN(C(=O)Cc2ccc(-c3ccc(F)cc3)cc2Cl)C2C=CS(=O)(=O)C2)ccn1 (centres unmarked) [I-101, 2-{3-chloro-4′-fluoro-[1,1′-biphenyl]-4-yl}-N-(1,1-dioxo-2,3-dihydro-1lambda6-thiophen-3-yl)-N-{[2-(2-hydroxypropan-2-yl)pyridin-4-yl]methyl}acetamide] | 5.30 to 6.30
COc1ccccc1CN(C(=O)Cc1ccc(-n2cccc2)cc1)C1C=CS(=O)(=O)C1 (centres unmarked) [I-524, N-(1,1-dioxo-2,3-dihydro-1lambda6-thiophen-3-yl)-N-[(2-methoxyphenyl)methyl]-2-[4-(1H-pyrrol-1-yl)phenyl]acetamide] | < 4.30
O=C(Cc1ccc(C(F)(F)F)c(F)c1)N(Cc1ccncc1)C1C=CS(=O)(=O)C1 (centres unmarked) [I-236, N-(1,1-dioxo-2,3-dihydro-1lambda6-thiophen-3-yl)-2-[3-fluoro-4-(trifluoromethyl)phenyl]-N-[(pyridin-4-yl)methyl]acetamide] | 5.00 to 5.30
CC(C(=O)N(Cc1ccnc(C(C)(C)O)c1)[C@@H]1C=CS(=O)(=O)C1)n1cc(-c2ccc(F)cc2)cn1 (stereo partly drawn) [I-106, N-[(3R)-1,1-dioxo-2,3-dihydro-1lambda6-thiophen-3-yl]-2-[4-(4-fluorophenyl)-1H-pyrazol-1-yl]-N-{[2-(2-hydroxypropan-2-yl)pyridin-4-yl]methyl}propanamide] | 5.30 to 6.30
COc1cc(CN(C(=O)C(C)c2ccc(S(F)(F)(F)(F)F)cc2)C2C=CS(=O)(=O)C2)ccn1 (centres unmarked) [I-126, N-(1,1-dioxo-2,3-dihydro-1lambda6-thiophen-3-yl)-N-[(2-methoxypyridin-4-yl)methyl]-2-[4-(pentafluoro-lambda6-sulfanyl)phenyl]propanamide] | 5.30 to 6.30
COc1cc(CN(C(=O)Cc2ccc(-c3cscn3)cc2F)C2C=CS(=O)(=O)C2)ccn1 (centres unmarked) [I-363, N-(1,1-dioxo-2,3-dihydro-1lambda6-thiophen-3-yl)-2-[2-fluoro-4-(1,3-thiazol-4-yl)phenyl]-N-[(2-methoxypyridin-4-yl)methyl]acetamide] | 4.30 to 5.00
CNc1cc(CN(C(=O)Cc2ccc(-n3cccc3C)cc2F)C2C=CS(=O)(=O)C2)ccn1 (centres unmarked) [I-142, N-(1,1-dioxo-2,3-dihydro-1lambda6-thiophen-3-yl)-2-[2-fluoro-4-(2-methyl-1H-pyrrol-1-yl)phenyl]-N-{[2-(methylamino)pyridin-4-yl]methyl}acetamide] | 5.30 to 6.30
O=C(Cc1ccc(-n2cccc2CCO)cc1)N(Cc1ccccc1)C1C=CS(=O)(=O)C1 (centres unmarked) [I-383, N-benzyl-N-(1,1-dioxo-2,3-dihydro-1lambda6-thiophen-3-yl)-2-{4-[2-(2-hydroxyethyl)-1H-pyrrol-1-yl]phenyl}acetamide] | < 4.30
O=C(Cc1ccc(-n2cccc2)cc1)N(Cc1ccccc1Br)C1C=CS(=O)(=O)C1 (centres unmarked) [I-534, N-[(2-bromophenyl)methyl]-N-(1,1-dioxo-2,3-dihydro-1lambda6-thiophen-3-yl)-2-[4-(1H-pyrrol-1-yl)phenyl]acetamide] | < 4.30

Same assay, conditions: ADP-Glo_hWRN_IC50, 0.15 nM WRN, 5 μM ATP, 0.1 nM DNA duplex, 15 min preincubation, 60 min at 25° C., pH 7.5, 1% DMSO

pIC50 | SMILES
< 4.30 | O=C(CN1CC=C(c2ccccc2)CC1)N(c1ccccc1)C1C=CS(=O)(=O)C1 (centres unmarked) [I-430, N-(1,1-dioxo-2,3-dihydro-1lambda6-thiophen-3-yl)-N-phenyl-2-(4-phenyl-1,2,3,6-tetrahydropyridin-1-yl)acetamide]
